Where two headings read alike, the source gives them in different places.
How the values were obtained:
[1] = target: isolated recombinant JAK1 kinase domain (Homo sapiens (Human), UniProt P23458); test: JAK1 enzyme assay (Caliper LabChip, Ki); format: biochemical
[2] = target: isolated recombinant JAK2 kinase domain (Homo sapiens (Human), UniProt O60674); test: JAK2 enzyme assay (Caliper LabChip, Ki); format: biochemical
[3] = isolated recombinant JAK1 kinase domain, 1.5 nM enzyme, ATP 25 μM
[4] = isolated recombinant JAK2 kinase domain, 0.2 nM enzyme, ATP 25 μM

Chain of isolated recombinant JAK2 kinase domain (O60674 849-1124): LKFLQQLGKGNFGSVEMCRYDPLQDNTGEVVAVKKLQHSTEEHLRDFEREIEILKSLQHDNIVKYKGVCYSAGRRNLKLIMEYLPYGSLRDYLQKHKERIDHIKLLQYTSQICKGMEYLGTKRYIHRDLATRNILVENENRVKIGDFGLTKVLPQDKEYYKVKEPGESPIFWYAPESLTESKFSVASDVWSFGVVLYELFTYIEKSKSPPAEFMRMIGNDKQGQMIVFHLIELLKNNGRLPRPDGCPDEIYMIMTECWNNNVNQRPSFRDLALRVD
Chain of isolated recombinant JAK1 kinase domain (P23458 875-1153): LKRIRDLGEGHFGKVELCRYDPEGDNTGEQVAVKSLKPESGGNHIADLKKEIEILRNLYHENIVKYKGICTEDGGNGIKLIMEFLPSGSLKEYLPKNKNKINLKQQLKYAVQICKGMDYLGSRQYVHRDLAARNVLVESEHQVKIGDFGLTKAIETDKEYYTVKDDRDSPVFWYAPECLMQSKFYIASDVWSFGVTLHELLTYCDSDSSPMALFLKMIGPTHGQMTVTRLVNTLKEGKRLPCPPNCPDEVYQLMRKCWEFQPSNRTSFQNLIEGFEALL

Work on `CN1CCN(C(=O)Cn2cc(Nc3nc4c(C5=CC6CCC(C5)N6C(=O)OCC(F)(F)F)cccn4n3)cn2)CC1` (centres unmarked) [Example 7, 2,2,2-trifluoroethyl 3-[2-[[1-[2-(4-methylpiperazin-1-yl)-2-oxo-ethyl]pyrazol-4-yl]amino]-[1,2,4]triazolo[1,5-a]pyridin-8-yl]-8-azabicyclo[3.2.1]oct-3-ene-8-carboxylate] yielded a Ki [1] of 0.7 nM and a Ki [2] of 0.7 nM.
Work on `CN1CCN(C(=O)Cn2cc(Nc3nc4c(N5CC6CCC(C5)N6C(=O)CC5CC(F)(F)C5)cccn4n3)cn2)CC1` [Example 8, 2-(3,3-difluorocyclobutyl)-1-[3-[2-[[1-[2-(4-methylpiperazin-1-yl)-2-oxo-ethyl]pyrazol-4-yl]amino]-[1,2,4]triazolo[1,5-a]pyridin-8-yl]-3,8-diazabicyclo[3.2.1]octan-8-yl]ethanone] yielded a Ki [1, 3] of 0.6 nM and a Ki [2, 4] of 0.7 nM.
For `CN1CCN(C(=O)Cn2cc(Nc3nc4c(N5CC6CCC(C5)N6C(=O)CC5CSCCS5)cccn4n3)cn2)CC1` (centres unmarked) [Example 9, 2-(1,4-dithian-2-yl)-1-[3-[2-[[1-[2-(4-methylpiperazin-1-yl)-2-oxo-ethyl]pyrazol-4-yl]amino]-[1,2,4]triazolo[1,5-a]pyridin-8-yl]-3,8-diazabicyclo[3.2.1]octan-8-yl]ethanone], the Ki [1, 3] was 0.6 nM and the Ki [2, 4] was 0.9 nM.
`O=C(Cn1cc(Nc2nc3c(N4CC5CCC(C4)N5C(=O)CCC(F)(F)F)cccn3n2)cn1)N1CCN(C2CCOCC2)CC1` [Example 10, 4,4,4-trifluoro-1-[3-[2-[[1-[2-oxo-2-(4-tetrahydropyran-4-ylpiperazin-1-yl)ethyl]pyrazol-4-yl]amino]-[1,2,4]triazolo[1,5-a]pyridin-8-yl]-3,8-diazabicyclo[3.2.1]octan-8-yl]butan-1-one] was tested, and the Ki [1, 3] was 0.7 nM and the Ki [2, 4] was 1.2 nM.
With `CN(C1CCN(C(=O)Cn2cc(Nc3nc4c(N5CC6CCC(C5)N6C(=O)CCC(F)(F)F)cccn4n3)cn2)CC1)C1COC1` [Example 11, 4,4,4-trifluoro-1-[3-[2-[[1-[2-[4-[methyl(oxetan-3-yl)amino]-1-piperidyl]-2-oxo-ethyl]pyrazol-4-yl]amino]-[1,2,4]triazolo[1,5-a]pyridin-8-yl]-3,8-diazabicyclo[3.2.1]octan-8-yl]butan-1-one] the Ki [1, 3] was 0.7 nM and the Ki [2, 4] was 1.4 nM.
In the case of `CN1CCN(C(=O)Cn2cc(Nc3nc4c(N5CC6CCC(C5)N6C(=O)CC(F)(F)F)cccn4n3)cn2)CC1` [Example 12, 3,3,3-trifluoro-1-[3-[2-[[1-[2-(4-methylpiperazin-1-yl)-2-oxo-ethyl]pyrazol-4-yl]amino]-[1,2,4]triazolo[1,5-a]pyridin-8-yl]-3,8-diazabicyclo[3.2.1]octan-8-yl]propan-1-one], the Ki [1, 3] is reported as 0.7 nM and the Ki [2, 4] is reported as 1.7 nM.
`CN1CCN(C(=O)Cn2cc(Nc3nc4c(N5CC6CCC(C5)N6C(=O)C5CC5C(F)(F)F)cccn4n3)cn2)CC1` (centres unmarked) [Example 14, 1-(4-methylpiperazin-1-yl)-2-[4-[[8-[8-[2-(trifluoromethyl)cyclopropanecarbonyl]-3,8-diazabicyclo[3.2.1]octan-3-yl]-[1,2,4]triazolo[1,5-a]pyridin-2-yl]amino]pyrazol-1-yl]ethanone] was tested, and the Ki [1, 3] was 1 nM and the Ki [2, 4] was 1.1 nM.
Work on `CN1CCN(C(=O)Cn2cc(Nc3nc4c(N5CC6CCC(C5)N6C(=O)[C@H]5C[C@@H](C(F)(F)F)C5)cccn4n3)cn2)CC1` [Example 15, formic acid; 1-(4-methylpiperazin-1-yl)-2-[4-[[8-[8-[3-(trifluoromethyl)cyclobutanecarbonyl]-3,8-diazabicyclo[3.2.1]octan-3-yl]-[1,2,4]triazolo[1,5-a]pyridin-2-yl]amino]pyrazol-1-yl]ethanone] yielded a Ki [1, 3] of 1.1 nM and a Ki [2, 4] of 3.7 nM.
In the case of `CN1CCN(C(=O)Cn2cc(Nc3nc4c(N5CC6CCC(C5)N6C(=O)CC5CC5(F)F)cccn4n3)cn2)CC1` (centres unmarked) [Example 16, 2-(2,2-difluorocyclopropyl)-1-[3-[2-[[1-[2-(4-methylpiperazin-1-yl)-2-oxo-ethyl]pyrazol-4-yl]amino]-[1,2,4]triazolo[1,5-a]pyridin-8-yl]-3,8-diazabicyclo[3.2.1]octan-8-yl]ethanone], the Ki [1, 3] is reported as 1 nM and the Ki [2, 4] is reported as 1.8 nM.
`CN1CCN(C(=O)Cn2cc(Nc3nc4c(N5CC6CC(C5)N6Cc5ccc(Cl)cc5)cccn4n3)cn2)CC1` [Example 34, 2-[4-[(8-[6-[(4-chlorophenyl)methyl]-3,6-diazabicyclo[3.1.1]heptan-3-yl]-[1,2,4]triazolo[1,5-a]pyridin-2-yl)amino]-1H-pyrazol-1-yl]-1-(4-methylpiperazin-1-yl)ethan-1-one] gave a Ki [1, 3] of 68.8 nM and a Ki [2, 4] of 271 nM.
Compound `CN1CCN(C(=O)Cn2cc(Nc3nc4c(N5CC6CCC(C5)N6C(=O)C5CC5(F)F)cccn4n3)cn2)CC1` (centres unmarked) [Example 37, 2-[4-[[8-[8-(2,2-difluorocyclopropanecarbonyl)-3,8-diazabicyclo[3.2.1]octan-3-yl]-[1,2,4]triazolo[1,5-a]pyridin-2-yl]amino]pyrazol-1-yl]-1-(4-methylpiperazin-1-yl)ethanone] has a Ki [1, 3] of 1.3 nM and a Ki [2, 4] of 1.8 nM.
With `CN1CCN(C(=O)Cn2cc(Nc3nc4c(N5CC6CCC(C5)N6C(=O)C5(C(F)(F)F)CC5)cccn4n3)cn2)CC1` [Example 38, 1-(4-methylpiperazin-1-yl)-2-[4-[[8-[8-[1-(trifluoromethyl)cyclopropanecarbonyl]-3,8-diazabicyclo[3.2.1]octan-3-yl]-[1,2,4]triazolo[1,5-a]pyridin-2-yl]amino]pyrazol-1-yl]ethanone] the Ki [1, 3] was 1.3 nM and the Ki [2, 4] was 1.8 nM.
`O=C(Cn1cc(Nc2nc3c(N4CC5CCC(C4)N5C(=O)N4CC(C(F)(F)F)C4)cccn3n2)cn1)N1CCN(C2CCOCC2)CC1` [Example 39, 1-(4-tetrahydropyran-4-ylpiperazin-1-yl)-2-[4-[[8-[8-[3-(trifluoromethyl)azetidine-1-carbonyl]-3,8-diazabicyclo[3.2.1]octan-3-yl]-[1,2,4]triazolo[1,5-a]pyridin-2-yl]amino]pyrazol-1-yl]ethanone] was tested, and the Ki [1, 3] was 0.7 nM and the Ki [2, 4] was 0.4 nM.
`CN1CCN(C(=O)Cn2cc(Nc3nc4c(N5CC6CCCC(C5)N6C(=O)[C@H]5C[C@H](C(F)(F)F)C5)cccn4n3)cn2)CC1` [Example 40, 1-(4-methylpiperazin-1-yl)-2-[4-[[8-[9-[3-(trifluoromethyl)cyclobutanecarbonyl]-3,9-diazabicyclo[3.3.1]nonan-3-yl]-[1,2,4]triazolo[1,5-a]pyridin-2-yl]amino]pyrazol-1-yl]ethanone] showed a Ki [1, 3] of 0.6 nM and a Ki [2, 4] of 0.6 nM.
`O=C(Cn1cc(Nc2nc3c(N4CC5CCC(C4)N5C(=O)CCC(F)(F)F)cccn3n2)cn1)N1CCC(CN2CCOCC2)CC1` [Example 41, 4,4,4-trifluoro-1-[3-[2-[[1-[2[4-(morpholinomethyl)-1-piperidyl]-2-oxo-ethyl]pyrazol-4-yl]amino]-[1,2,4]triazolo[1,5-a]pyridin-8-yl]-3,8-diazabicyclo[3.2.1]octan-8-yl]butan-1-one] gave a Ki [1, 3] of 2.6 nM and a Ki [2, 4] of 4.6 nM.
In the case of `CN1CCN(C(=O)Cn2cc(Nc3nc4c(N5CC6CCC(C5)N6C(=O)Cc5ccncc5)cccn4n3)cn2)CC1` [Example 42, 1-[3-[2-[[1-[2-(4-methylpiperazin-1-yl)-2-oxo-ethyl]pyrazol-4-yl]amino]-[1,2,4]triazolo[1,5-a]pyridin-8-yl]-3,8-diazabicyclo[3.2.1]octan-pyridyl)ethanone], the Ki [1, 3] is reported as 1.6 nM and the Ki [2, 4] is reported as 5.7 nM.

Source: patent publication US10189836B2, “Therapeutic compounds, compositions and methods of use thereof” (Genentech, Inc., priority 2015, dated 2019)
